target: T1, APOL1 G1 Protein (Homo sapiens, UniProt O14791, I384M/S342G); experiment: Trypanosoma brucei brucei lysis assay using APOL1 recombinant protein (AlamarBlue viability); type: cell-based; conditions: Trypanosoma brucei brucei lysis, recombinant APOL1, AlamarBlue; read-out: Trypanosoma Assay (IC50)
T1 sequence (O14791 28-398 S342G/I384M): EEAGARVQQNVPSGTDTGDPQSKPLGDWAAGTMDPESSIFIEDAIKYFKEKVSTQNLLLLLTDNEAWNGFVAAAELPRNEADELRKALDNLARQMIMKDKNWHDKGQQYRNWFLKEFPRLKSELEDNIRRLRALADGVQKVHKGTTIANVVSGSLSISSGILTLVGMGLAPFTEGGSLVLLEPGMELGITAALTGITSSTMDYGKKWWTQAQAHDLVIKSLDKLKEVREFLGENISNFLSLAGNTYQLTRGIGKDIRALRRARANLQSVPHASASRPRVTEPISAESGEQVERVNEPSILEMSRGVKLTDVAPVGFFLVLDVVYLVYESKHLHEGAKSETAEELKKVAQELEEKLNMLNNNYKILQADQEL
Procedure, shortened: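 Bloodstream-form T. b. brucei Lister 427 VSG 221, 120,000 parasites/well in phenol red-free, FBS-free medium, lysed by recombinant APOL1 G1 with compound (10-point dose response, 0.1% DMSO final). Viability read by AlamarBlue fluorescence against a parasite standard curve.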

Q: For `O=C1NCCCC1NC(=O)[C@H]1C[C@H](c2c(-c3ccc(F)cc3)[nH]c3c(F)cc(F)cc32)C1` (stereo partly drawn) [Compound 23], which IC50 is on record?
A: The IC50 was 250 to 1000 nM.

Q: How did the IC50 turn out when `O=C(N[C@H]1COC[C@@H]1O)[C@H]1C[C@H](c2c(-c3ccc(F)cc3)[nH]c3c(F)cc(F)cc32)C1` [Compound 184] was run?
A: Its IC50 is 250 to 1000 nM.

Q: With `Cc1cnc(NC(=O)[C@H]2C[C@H](c3c(-c4ccc(F)cc4)[nH]c4c(F)cc(F)cc43)C2)o1` [Compound 24] as the molecule, how does the IC50 read?
A: Its IC50 is greater than 1000 nM.

Q: For `COC[C@@H]1CCN1C(=O)[C@H]1C[C@H](c2c(-c3ccc(F)cc3)[nH]c3c(F)cc(F)cc32)C1` [Compound 220], which IC50 is on record?
A: Its IC50 is 250 to 1000 nM.

Q: For `O=C(NCC1(O)CC1)[C@H]1C[C@H](c2c(-c3ccc(F)cc3)[nH]c3c(F)cc(F)cc32)C1` [Compound 183], which IC50 is on record?
A: Its IC50 is 250 to 1000 nM.

Q: Which IC50 does the source give for `CC(CO)(CO)NC(=O)[C@H]1C[C@H](c2c(-c3ccc(F)cc3)[nH]c3c(F)cc(F)cc32)C1` [Compound 186] here?
A: Its IC50 is less than 250 nM.

Q: `O=C([C@H]1C[C@H](c2c(-c3ccc(F)cc3)[nH]c3c(F)cc(F)cc32)C1)N1CC(CO)C1` [Compound 223] was tested. Which IC50 did it give?
A: Its IC50 is less than 250 nM.

Q: For `O=C(NC[C@H](O)CO)[C@H]1C[C@H](c2c(-c3ccc(F)cc3)[nH]c3c(F)cc(F)cc32)C1` [Compound 225], which IC50 is on record?
A: The IC50 was 250 to 1000 nM.

Q: With `C#CC(CO)NC(=O)[C@H]1C[C@H](c2c(-c3ccc(F)cc3)[nH]c3c(F)cc(F)cc32)C1` (stereo partly drawn) [Compound 196] as the molecule, how does the IC50 read?
A: Its IC50 is less than 250 nM.

Q: With `O=C([C@H]1C[C@H](c2c(-c3ccc(F)cc3)[nH]c3c(F)cc(F)cc32)C1)N1CC[C@@H]1CO` [Compound 195] as the molecule, how does the IC50 read?
A: The IC50 was less than 250 nM.

Q: `CC1(CO)CCN1C(=O)[C@H]1C[C@H](c2c(-c3ccc(F)cc3)[nH]c3c(F)cc(F)cc32)C1` (mixture of isomers) [Compound 218] was tested. Which IC50 did it give?
A: The IC50 was less than 250 nM.

Q: Which IC50 does the source give for `O=C(N[C@@H]1CCC[C@@H]1O)[C@H]1C[C@H](c2c(-c3ccc(F)cc3)[nH]c3c(F)cc(F)cc32)C1` [Compound 179] here?
A: Its IC50 is 250 to 1000 nM.

Q: With `NC(=O)C1CC(c2c(-c3ccc(F)cc3)[nH]c3c(F)cc(F)cc23)C1` (stereo not drawn) [Compound 278, 3-[5,7-difluoro-2-(4-fluorophenyl)-1H-indol-3-yl]cyclobutanecarboxamide] as the molecule, how does the IC50 read?
A: The IC50 was 250 to 1000 nM.

Q: Which IC50 does the source give for `Cn1cncc1CNC(=O)[C@H]1C[C@H](c2c(-c3ccc(F)cc3)[nH]c3c(F)cc(F)cc32)C1` [Compound 174] here?
A: The IC50 was 250 to 1000 nM.

Q: For `C[C@@H](CO)NC(=O)[C@H]1C[C@H](c2c(-c3ccc(F)cc3)[nH]c3c(F)cc(F)cc32)C1` [Compound 200], which IC50 is on record?
A: The IC50 was less than 250 nM.

Q: `N#CC(CO)NC(=O)[C@H]1C[C@H](c2c(-c3ccc(F)cc3)[nH]c3c(F)cc(F)cc32)C1` (stereo partly drawn) [Compound 201] was tested. Which IC50 did it give?
A: The IC50 was less than 250 nM.

Q: Which IC50 does the source give for `C[C@H](O)[C@@H](CO)NC(=O)[C@H]1C[C@H](c2c(-c3ccc(F)cc3)[nH]c3c(F)cc(F)cc32)C1` [Compound 16] here?
A: Its IC50 is less than 250 nM.

Q: For `Cc1cc(CNC(=O)[C@H]2C[C@H](c3c(-c4ccc(F)cc4)[nH]c4c(F)cc(F)cc43)C2)on1` [Compound 37], which IC50 is on record?
A: Its IC50 is 250 to 1000 nM.

Q: `O=C(NCc1nnco1)[C@H]1C[C@H](c2c(-c3ccc(F)cc3)[nH]c3c(F)cc(F)cc32)C1` [Compound 171] was tested. Which IC50 did it give?
A: Its IC50 is less than 250 nM.

Q: For `CC(C)CC(NC(=O)[C@H]1C[C@H](c2c(-c3ccc(F)cc3)[nH]c3c(F)cc(F)cc32)C1)C(N)=O` (stereo partly drawn) [Compound 30], which IC50 is on record?
A: Its IC50 is greater than 1000 nM.

Q: `CC1(NC(=O)[C@H]2C[C@H](c3c(-c4ccc(F)cc4)[nH]c4c(F)cc(F)cc43)C2)CCNC1=O` (mixture of isomers) [Compound 197] was tested. Which IC50 did it give?
A: Its IC50 is less than 250 nM.

Q: `O=C(NCCn1cnnc1)[C@H]1C[C@H](c2c(-c3ccc(F)cc3)[nH]c3c(F)cc(F)cc32)C1` [Compound 39] was tested. Which IC50 did it give?
A: Its IC50 is greater than 1000 nM.

Q: For `Cc1nnc(CNC(=O)[C@H]2C[C@H](c3c(-c4ccc(F)cc4)[nH]c4c(F)cc(F)cc43)C2)o1` [Compound 172], which IC50 is on record?
A: The IC50 was less than 250 nM.

Q: Which IC50 does the source give for `O=C(N[C@H]1CC[C@H]1O)[C@H]1C[C@H](c2c(-c3ccc(F)cc3)[nH]c3c(F)cc(F)cc32)C1` [Compound 181] here?
A: The IC50 was 250 to 1000 nM.

Q: How did the IC50 turn out when `O=C1NCCC1CNC(=O)[C@H]1C[C@H](c2c(-c3ccc(F)cc3)[nH]c3c(F)cc(F)cc32)C1` (stereo partly drawn) [Compound 208] was run?
A: The IC50 was greater than 1000 nM.

Q: For `CC(C)(O)C(O)CNC(=O)[C@H]1C[C@H](c2c(-c3ccc(F)cc3)[nH]c3c(F)cc(F)cc32)C1` (stereo partly drawn) [Compound 215], which IC50 is on record?
A: Its IC50 is greater than 1000 nM.

Q: Which IC50 does the source give for `Cn1ccc(NC(=O)[C@H]2C[C@H](c3c(-c4ccc(F)cc4)[nH]c4c(F)cc(F)cc43)C2)n1` [Compound 22] here?
A: Its IC50 is 250 to 1000 nM.

Q: With `CC1CC(NC(=O)[C@H]2C[C@H](c3c(-c4ccc(F)cc4)[nH]c4c(F)cc(F)cc43)C2)C(=O)O1` (stereo partly drawn) [Compound 207] as the molecule, how does the IC50 read?
A: The IC50 was greater than 1000 nM.

Q: Which IC50 does the source give for `O=C1OCC[C@@H]1NC(=O)[C@H]1C[C@H](c2c(-c3ccc(F)cc3)[nH]c3c(F)cc(F)cc32)C1` [Compound 188] here?
A: The IC50 was 250 to 1000 nM.

Q: With `O=C(NC1CCOC1)[C@H]1C[C@H](c2c(-c3ccc(F)cc3)[nH]c3c(F)cc(F)cc32)C1` (stereo partly drawn) [Compound 15] as the molecule, how does the IC50 read?
A: Its IC50 is 250 to 1000 nM.

Q: How did the IC50 turn out when `O=C(NCC1(O)COC1)[C@H]1C[C@H](c2c(-c3ccc(F)cc3)[nH]c3c(F)cc(F)cc32)C1` [Compound 185] was run?
A: The IC50 was 250 to 1000 nM.

Q: How did the IC50 turn out when `CC[C@@H](CO)NC(=O)[C@H]1C[C@H](c2c(-c3ccc(F)cc3)[nH]c3c(F)cc(F)cc32)C1` [Compound 204] was run?
A: Its IC50 is less than 250 nM.

Q: Which IC50 does the source give for `C[C@@H](O)CNC(=O)[C@H]1C[C@H](c2c(-c3ccc(F)cc3)[nH]c3c(F)cc(F)cc32)C1` [Compound 175] here?
A: Its IC50 is 250 to 1000 nM.

Q: Which IC50 does the source give for `CS(=O)(=O)NC(=O)[C@H]1C[C@H](c2c(-c3ccc(F)cc3)[nH]c3c(F)cc(F)cc32)C1` [Compound 213] here?
A: Its IC50 is greater than 1000 nM.

Q: Which IC50 does the source give for `O=C(NCC(O)CO)[C@H]1C[C@H](c2c(-c3ccc(F)cc3)[nH]c3c(F)cc(F)cc32)C1` (stereo partly drawn) [Compound 14] here?
A: The IC50 was 250 to 1000 nM.

Q: With `CS(=O)(=O)CCNC(=O)[C@H]1C[C@H](c2c(-c3ccc(F)cc3)[nH]c3c(F)cc(F)cc32)C1` [Compound 40] as the molecule, how does the IC50 read?
A: The IC50 was greater than 1000 nM.

Q: For `C[C@]1(NC(=O)[C@H]2C[C@H](c3c(-c4ccc(F)cc4)[nH]c4c(F)cc(F)cc43)C2)C[C@@H](O)C1` [Compound 211], which IC50 is on record?
A: Its IC50 is 250 to 1000 nM.

Q: With `CC[C@H](CO)NC(=O)[C@H]1C[C@H](c2c(-c3ccc(F)cc3)[nH]c3c(F)cc(F)cc32)C1` [Compound 203] as the molecule, how does the IC50 read?
A: Its IC50 is 250 to 1000 nM.

Q: Which IC50 does the source give for `O=C1CN(C(=O)[C@H]2C[C@H](c3c(-c4ccc(F)cc4)[nH]c4c(F)cc(F)cc43)C2)CCN1` [Compound 228] here?
A: The IC50 was greater than 1000 nM.

Q: `O=C([C@H]1C[C@H](c2c(-c3ccc(F)cc3)[nH]c3c(F)cc(F)cc32)C1)N1CCOC[C@H]1CO` [Compound 217] was tested. Which IC50 did it give?
A: The IC50 was 250 to 1000 nM.

Q: With `COC1CC1NC(=O)[C@H]1C[C@H](c2c(-c3ccc(F)cc3)[nH]c3c(F)cc(F)cc32)C1` (stereo partly drawn) [Compound 18] as the molecule, how does the IC50 read?
A: The IC50 was greater than 1000 nM.

Q: How did the IC50 turn out when `Cc1noc(CNC(=O)[C@H]2C[C@H](c3c(-c4ccc(F)cc4)[nH]c4c(F)cc(F)cc43)C2)n1` [Compound 173] was run?
A: The IC50 was less than 250 nM.

Q: `O=C(NC[C@@H](O)CO)[C@H]1C[C@H](c2c(-c3ccc(F)cc3)[nH]c3c(F)cc(F)cc32)C1` [Compound 224] was tested. Which IC50 did it give?
A: Its IC50 is greater than 1000 nM.

Q: With `O=C(NC(CO)C1CC1)[C@H]1C[C@H](c2c(-c3ccc(F)cc3)[nH]c3c(F)cc(F)cc32)C1` (stereo partly drawn) [Compound 199] as the molecule, how does the IC50 read?
A: Its IC50 is 250 to 1000 nM.

Q: For `NC(=O)C(CO)NC(=O)[C@H]1C[C@H](c2c(-c3ccc(F)cc3)[nH]c3c(F)cc(F)cc32)C1` (stereo partly drawn) [Compound 32], which IC50 is on record?
A: Its IC50 is less than 250 nM.

Q: How did the IC50 turn out when `COC[C@@H]1CCN1C(=O)[C@H]1C[C@H](c2c(-c3ccc(F)cc3)[nH]c3c(F)cc(F)cc32)C1` [Compound 222] was run?
A: The IC50 was less than 250 nM.

Q: With `O=C(NC1(CO)CCOC1)[C@H]1C[C@H](c2c(-c3ccc(F)cc3)[nH]c3c(F)cc(F)cc32)C1` (stereo partly drawn) [Compound 194] as the molecule, how does the IC50 read?
A: Its IC50 is less than 250 nM.

Q: Which IC50 does the source give for `CC(C)C(CO)NC(=O)[C@H]1C[C@H](c2c(-c3ccc(F)cc3)[nH]c3c(F)cc(F)cc32)C1` (stereo partly drawn) [Compound 29] here?
A: Its IC50 is 250 to 1000 nM.

From patent publication US12116343B2, “Inhibitors of APOL1 and methods of using same” (Vertex Pharmaceuticals Incorporated, priority 2020, dated 2024)
